≈ marks a conversion by molar mass, not a printed value.
Details: for aqueous solubility: pH 6.8

SMILES | intrinsic clearance, human liver microsomes [mL/min/kg] | intrinsic clearance, rat liver microsomes [mL/min/kg] | aqueous solubility [µg/mL] | MDR1-MDCK efflux ratio | fraction unbound, human plasma | fraction unbound, rat plasma
COc1ccc(C(=O)N2CCCC2)cc1NC(=O)c1cc(F)c(F)c(F)c1F | ≤ 4.74 | 90.1 | 43.9 (≈ 111 µM) |  |  | 
Cc1cc(Nc2ccc(F)cn2)cc(C2CCN(C(=O)COc3ccccc3F)C2)n1 (configuration not stated) | 115 | 507 | 55.6 (≈ 131 µM) | 9.5 |  | 
CN(C)C(=O)Cn1cc(C(=O)O)ccc1=O | ≤ 4.74 | ≤ 10.7 | 21.1 (≈ 93.9 µM) |  |  | 
Cc1cc(NC(=O)c2cc(F)cc(F)c2)sn1 | 130 | 77.3 |  |  |  | 
COc1ccc(C(C)(C)C)cc1NC(=O)C1(C#N)CCCC1 |  |  | 0.3 (≈ 0.999 µM) | 0.478 |  | 
Cc1cccc(-c2ncc(CNCc3ccccc3-n3cccn3)cn2)c1 | 303 | 3450 | 22.4 (≈ 62.9 µM) | 0.593 |  | 
Cc1ccnc(N2CCC(OCC3CCCC3)CC2)n1 | 108 | 5910 |  | 0.515 |  | 
Cn1cc(CN2CCN(c3ccccc3O)CC2)c(-c2ccncc2)n1 | 27.3 | 374 | 33.2 (≈ 95 µM) | 2.69 |  | 
Cc1cc(N(C)C)nc(-n2cnc(C#N)n2)n1 | 33.6 | 79.2 | 23.3 (≈ 101 µM) | 0.595 |  | 
N#CCN1CCC(CNC(=O)c2c(F)ccc(F)c2F)CC1 | 4.81 | 15.7 |  | 1.76 |  | 
COc1ccc(NC(=O)C(C)N2CCCN(c3ccc(C(F)(F)F)cn3)CC2)cc1 (configuration not stated) | 391 | 1930 | 19.1 (≈ 45.1 µM) | 0.969 |  | 
CCN1CCc2nc(NC(=O)Cc3ccc(Cl)cc3)sc2C1 | 11.6 | ≤ 10.7 | 46.6 (≈ 139 µM) | 1.02 |  | 
COc1ccccc1OC1CCN(Cc2ccccc2C#N)CC1 | 220 | 1510 | 41.1 (≈ 127 µM) | 0.557 |  | 
Cc1cc(F)ccc1-c1nc(CCn2c(C)nc3ccccc32)no1 | 398 | 1800 |  | 0.696 |  | 
N#Cc1cnc2cc(F)cc(F)c2c1NC1CCN(CC(N)=O)CC1 | ≤ 4.74 | 27.4 |  | 15 |  | 
O=C(Cc1cccc(I)c1)N1CC(CO)C1 | ≤ 4.74 | ≤ 10.7 | 42.1 (≈ 127 µM) | 1.59 |  | 
Cn1cc(NC(=O)c2ccc(OCC3CCOCC3)nc2)cn1 | ≤ 4.74 | 41.2 | 50.1 (≈ 158 µM) | 2.95 |  | 
O=C(NC1=NS(=O)(=O)c2ccccc21)c1cc(-c2ccc(F)cc2)no1 | 90.3 | ≤ 10.7 | 31.8 (≈ 85.5 µM) | 2.56 |  | 
COCCNC(=O)c1ccnc(C2CCNCC2)c1 | ≤ 4.74 | 16.1 |  |  | 1 | 1
CN1CCN(c2ccc(NC(=O)c3ccc(S(=O)(=O)N4CCCc5ccccc54)cc3)cc2)CC1 | 526 | 727 | 10.1 (≈ 20.6 µM) | 8.78 |  | 

SMILES | intrinsic clearance, human liver microsomes [mL/min/kg] | intrinsic clearance, rat liver microsomes [mL/min/kg] | aqueous solubility [µg/mL] | MDR1-MDCK efflux ratio | fraction unbound, human plasma | fraction unbound, rat plasma
Cc1nn(C)c(C)c1-c1cc(C(C)(C)C)nc(N2CCN(C)CC2)n1 | 17.5 | 4620 |  | 1.81 |  | 
Cc1nnc(-c2cccc(C(=O)O)c2)o1 | ≤ 4.74 | ≤ 10.7 | 34.4 (≈ 168 µM) |  |  | 
Cc1ccncc1NC(=O)Cc1ccc(F)cc1 | ≤ 4.74 | 20.4 |  |  |  | 
O=C1Nc2ccccc2O[C@H]2C[C@@H]1N(Cc1cccnc1)C2 | 12.7 | 281 | 94.3 (≈ 319 µM) | 17.7 |  | 
Cn1cc(-c2nc(C(F)(F)F)c[nH]2)cn1 |  |  | 40.2 (≈ 186 µM) |  |  | 
Nc1ccnc2ccc(Oc3ccccc3)cc12 | 13.5 | 2330 |  | 0.486 |  | 
Cc1c(-c2c(F)cc(C(N)=O)c3[nH]c4c(c23)CC[C@H](C(C)(C)O)C4)cccc1-n1c(=O)c2cccc(F)c2n(C)c1=O | 11.4 | 43.4 | 2.4 (≈ 4.19 µM) | 3.4 | 0.0273 | 0.0212
CNc1nc(Nc2cnn([C@H]3CCN(C4COC4)C[C@@H]3F)c2Cl)ncc1C(F)(F)F | 10.6 | 60.9 |  | 1.31 |  | 
Oc1ccc(-c2noc(C3CC3)n2)cc1 |  |  | 49 (≈ 242 µM) | 0.674 |  | 
O=C(Cc1ccc2c(c1)CCC2)Nc1nc2ccccc2o1 | 113 | 1540 | 3.63 (≈ 12.4 µM) | 0.499 |  | 
Cn1ccnc1-c1noc(NCc2ccccc2)n1 | 5.04 | 193 |  | 1.21 |  | 
CCOC(=O)CCN1CCC=C(Br)C1 |  |  |  | 0.625 |  | 
O=C(c1cccc(N2CCNC2=O)c1)N1CCc2ccccc2C1 | 12.8 | 322 | 42.3 (≈ 132 µM) | 5.72 |  | 
Clc1ccc(Cc2nc(-c3cccnc3)no2)cc1 | 26.9 | 219 | 16.5 (≈ 60.7 µM) | 0.458 |  | 
C=CCNC1=C2C[C@@H](C)C[C@@H](OC)[C@@H](O)[C@@H](C)/C=C(\C)[C@@H](OC(N)=O)[C@@H](OC)/C=C\C=C(/C)C(=O)NC(=CC1=O)C2=O | 489 | 1010 |  |  |  | 
CCOC(=O)c1c(C)n(C)c2ccc(O)cc12 | 30.8 | 166 |  |  |  | 
Cc1[nH]nc2c1C1(CCCCC1)CC(=O)N2 | 8.44 | 45.6 |  | 3.36 | 0.21 | 0.193
C#CCOc1ccc(C(=O)NN2CCCC2=O)cc1 | ≤ 4.74 | ≤ 10.7 | 25.3 (≈ 97.9 µM) | 1.32 |  | 
Clc1ccc2c(Oc3cccnc3)ncnc2c1 | 16.7 | 47 | 39.7 (≈ 154 µM) | 0.654 |  | 
CC(C)[C@H](CO)Nc1nc(Nc2cc(N)cc(Cl)c2)c2ncn(C(C)C)c2n1 |  |  |  | 16.9 | 0.00867 | 0.00796

SMILES | intrinsic clearance, human liver microsomes [mL/min/kg] | intrinsic clearance, rat liver microsomes [mL/min/kg] | aqueous solubility [µg/mL] | MDR1-MDCK efflux ratio | fraction unbound, human plasma | fraction unbound, rat plasma
Cc1nccc(N(C)Cc2nc(-c3cccnc3)no2)n1 | 8.62 | 200 |  | 0.87 |  | 
CC(C)[C@H]1C(=O)N[C@H](CO)Cc2cc(NC(=O)/C=C/C=C/c3ccc(C(F)(F)F)cc3)ccc2N1C | 497 | 439 |  | 55.9 |  | 
CCOc1ccc(-c2ccccc2NC(=O)COC)cc1 | 398 | 4200 | 37.3 (≈ 131 µM) | 0.401 |  | 
CN(C)C(=O)C(C)(C)NC(=O)OC(C)(C)C | ≤ 4.74 | 24.3 |  | 1.37 |  | 
O=C(c1ccccn1)N1CCCC(c2cccc(-c3cccc(Cl)c3)n2)C1 (configuration not stated) | 164 | 1300 | 29.9 (≈ 79.3 µM) | 0.791 |  | 
NC1(c2nc(-c3ccsc3)no2)CCCCC1 | ≤ 4.74 | 447 |  |  |  | 
Cc1nc2c(cnn2C(C)C)c(C)c1CCC(=O)O | ≤ 4.74 | ≤ 10.7 | 25.7 (≈ 98.3 µM) |  |  | 
Cc1ccc(NC(=O)Cc2c[nH]c3ccccc23)cc1 |  |  | 5.6 (≈ 21.2 µM) |  |  | 
COc1ncnc(C)c1-c1cccc(OC(C)C)c1 | 63.5 | 1060 |  | 0.634 |  | 
Clc1ccc2oc(/C=C/c3csnn3)nc2c1 |  |  | 0.19 (≈ 0.72 µM) |  |  | 
CCS(=O)(=O)CC(=O)Nc1cc(C)ccc1C | ≤ 4.74 | ≤ 10.7 | 40.4 (≈ 158 µM) |  |  | 
N#Cc1c(O)c(Cl)c(Cl)c(C#N)c1Cl |  |  | 31.3 (≈ 126 µM) |  |  | 
O=C(NC1CCNCC1)c1ccc2cn[nH]c2c1 | 16.1 |  |  |  | 1 | 0.511
COc1cc(OC)cc(N(CCNC(C)C)c2ccc3ncc(-c4cnn(C)c4)nc3c2)c1 | 17.6 | 790 |  | 106 |  | 
CN(CC1CCCC1)C(=O)Nc1ccccc1N1CCOC1=O | 44.9 | 541 | 50.6 (≈ 159 µM) | 5.03 |  | 
Cc1cc(NC2CCCC2)nc(C2CCNCC2)n1 | ≤ 4.74 | 24.8 | 71.4 (≈ 274 µM) | 66.7 |  | 
CSCC(=O)N1CCc2[nH]nc(-c3cccc(F)c3)c2C1 | 57 | 960 | 49.5 (≈ 162 µM) |  |  | 
CC1CCC(N(Cc2nnc(C3CCC3)o2)C2CCC(O)CC2)CC1 (configuration not stated) | 230 | 1610 |  | 2.03 |  | 
CC(C)N(C)S(=O)(=O)NCCCc1nc2cc(Cl)ccc2[nH]1 | 134 | 2500 |  | 16.7 |  | 
